According to patent US4622388A, “Des-2-serine, 3 asparagine-calcitonin” (Armour Pharmaceutical Company, priority 1985, dated 1986):
Positions of bridges follow the written chain, without caps; N, C: chain ends. Residues, ends and D or L forms follow the SMILES beside them.

Tests used:
[1] = literature value, Monikawa et al.; cited from earlier work
[2] = test system: serum calcium concentration; assay: Biological assay of calcitonin analogs in vivo: reduction of serum calcium concentration, 2x2 parallel line assay; parameters: species or system Rats
Procedure: The biological potency of des-2-serine, 3-asparagine-salmon calcitonin was determined by comparing the reduction of serum calcium concentration which followed administration by graded doses of des-Ser^2, […] -SCT and synthetic salmon calcitonin standard. Rats were divided into four groups of seven animals, and each group was assigned at random to a dose of standard or test solution. Low and high doses were chosen from the linear portion of the dose-response curve. For the salmon calcitonin standard, the values were 0.7 and 2.1 ng. peptide/100 g. body weight (BW). This dose approximates 3 and 9 MU/100 g. BW. Peptides were given by subcutaneous injection (0.2 ml/100 g. BW) and blood was withdrawn 1 hour later for serum calcium determination. Sera are processed and analyzed within two hours of collection. […]. Results were analyzed by a 2×2 parallel line assay [Gaddum, J. H. J. Pharm. Pharmacol., 6, 345 (1953)]. The standard salmon calcitonin used was independently determined to contain greater than 4,000 IU/mg. des-Ser^2, Asn^3 -SCT assayed at 4350 IU/mg.

Row | Molecule | hypocalcemic potency [1] | further results
1 | eel calcitonin [synthetic eel calcitonin] | around 4300 IU/mg. | 
2 | (1,7-α-L-amino-suberic acid)eel calcitonin | about 3400 IU/mg. | 
3 | CC(C)C[C@H](NC(=O)[C@H](CCCCN)NC(=O)CNC(=O)[C@H](CC(C)C)NC(=O)[C@@H](NC(=O)[C@@H]1CSSC[C@H](N)C(=O)N[C@@H](CC(C)C)C(=O)N[C@@H](CO)C(=O)N[C@@H]([C@@H](C)O)C(=O)N1)C(C)C)C(=O)N[C@@H](CO)C(=O)N[C@@H](CCC(N)=O)C(=O)N[C@@H](CCC(=O)O)C(=O)N[C@@H](CC(C)C)C(=O)N[C@@H](Cc1c[nH]cn1)C(=O)N[C@@H](CCCCN)C(=O)N[C@@H](CC(C)C)C(=O)N[C@@H](CCC(N)=O)C(=O)N[C@H](C(=O)N[C@@H](Cc1ccc(O)cc1)C(=O)N1CCC[C@H]1C(=O)N[C@@H](CCCNC(=N)N)C(=O)N[C@H](C(=O)N[C@@H](CC(N)=O)C(=O)N[C@H](C(=O)NCC(=O)N[C@@H](CO)C(=O)NCC(=O)N[C@H](C(=O)N1CCC[C@H]1C(N)=O)[C@@H](C)O)[C@@H](C)O)[C@@H](C)O)[C@@H](C)O [des-Ser^2, Asn^3 -SCT, des-2-serine, 3-asparagine-salmon calcitonin] (H-CLSTCVLGKLSQELHKLQTYPRTNTGSGTP-NH2; disulfide 1-5) |  | biological potency (reduction of serum calcium concentration) ([2]; rats, subcutaneous injection, blood withdrawn 1 hour later, vs synthetic salmon calcitonin standard): 4350 IU/mg
4 | CC(C)C[C@H](NC(=O)[C@H](CCCCN)NC(=O)CNC(=O)[C@H](CC(C)C)NC(=O)[C@@H](NC(=O)[C@@H]1CSSC[C@H](N)C(=O)N[C@@H](CO)C(=O)N[C@@H](CC(N)=O)C(=O)N[C@@H](CC(C)C)C(=O)N[C@@H](CO)C(=O)N[C@@H]([C@@H](C)O)C(=O)N1)C(C)C)C(=O)N[C@@H](CO)C(=O)N[C@@H](CCC(N)=O)C(=O)N[C@@H](CCC(=O)O)C(=O)N[C@@H](CC(C)C)C(=O)N[C@@H](Cc1c[nH]cn1)C(=O)N[C@@H](CCCCN)C(=O)N[C@@H](CC(C)C)C(=O)N[C@@H](CCC(N)=O)C(=O)N[C@H](C(=O)N[C@@H](Cc1ccc(O)cc1)C(=O)N1CCC[C@H]1C(=O)N[C@@H](CCCNC(=N)N)C(=O)N[C@H](C(=O)N[C@@H](CC(N)=O)C(=O)N[C@H](C(=O)NCC(=O)N[C@@H](CO)C(=O)NCC(=O)N[C@H](C(=O)N1CCC[C@H]1C(N)=O)[C@@H](C)O)[C@@H](C)O)[C@@H](C)O)[C@@H](C)O [standard salmon calcitonin, Salmon calcitonin] |  | potency of the standard salmon calcitonin, independently determined ([2]; standard used in the assay, independently determined): greater than 4,000 IU/mg
